The values below come from patent US9346809B2 (LEO PHARMA A/S, priority 2009, dated 2016).

What all share (format): biochemical
Assay [1] deals with T1, JAK1 (aa 850-1154, catalytic domain, GST-tag) (Homo sapiens, UniProt P23458).
T1 construct: JAK1 (aa 850-1154) and TYK2 (aa 871-1187) are expressed with an N-terminally fused GST-tag; GST (N); purchased Carna Biosciences, Inc; host or cells: baculovirus expression system
In words: JAK kinase assay (HTRF, phosphorylation of TK substrate-biotin), JAK1. Conditions: HTRF assay, ATP at Km (7 μM); read-out: JAK1 kinase inhibitory activity (EC50 indicator). An outline of the steps:
(§1)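 EC50 values come from HTRF detection of phospho-biotin-TK peptide (1 μM) after 20-30 min RT reactions in Hepes pH 7.0 buffer with 0.75% DMSO. ATP was at Km for each enzyme: 7 μM JAK1, 4 μM JAK2, 2 μM JAK3, 13 μM TYK2. SEB (50 nM) was added for JAK1 and TYK2 only.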

In assay [2] the target is T2, JAK2 (catalytic domain, His-tag) (Homo sapiens, UniProt O60674).
T2 construct: All four purified enzymes contain only the catalytic domain; His (N); purchased Carna Biosciences, Inc; host or cells: baculovirus expression system
Nature of the assay: JAK kinase assay (HTRF, phosphorylation of TK substrate-biotin), JAK2. Conditions: HTRF assay, ATP at Km (4 μM); read-out: JAK2 kinase inhibitory activity (EC50 indicator). The gist of the method:
as §1
Background: In TR-FRET formats the signal depends on donor and acceptor labels being close together.

The target of assay [3] is T3, JAK3 (catalytic domain, His-tag) (Homo sapiens, UniProt P52333).
T3 construct: All four purified enzymes contain only the catalytic domain; His (N); purchased Carna Biosciences, Inc; host or cells: baculovirus expression system
In words: JAK kinase assay (HTRF, phosphorylation of TK substrate-biotin), JAK3. Conditions: HTRF assay, ATP at Km (2 μM); read-out: JAK3 kinase inhibitory activity (EC50 indicator). The gist of the method:
as §1

For assay [4], the target named is T4, TYK2 (aa 871-1187, catalytic domain, GST-tag) (Homo sapiens, UniProt P29597).
T4 construct: JAK1 (aa 850-1154) and TYK2 (aa 871-1187) are expressed with an N-terminally fused GST-tag; GST (N); purchased Carna Biosciences, Inc; host or cells: baculovirus expression system
T4 sequence (P29597 871-1187): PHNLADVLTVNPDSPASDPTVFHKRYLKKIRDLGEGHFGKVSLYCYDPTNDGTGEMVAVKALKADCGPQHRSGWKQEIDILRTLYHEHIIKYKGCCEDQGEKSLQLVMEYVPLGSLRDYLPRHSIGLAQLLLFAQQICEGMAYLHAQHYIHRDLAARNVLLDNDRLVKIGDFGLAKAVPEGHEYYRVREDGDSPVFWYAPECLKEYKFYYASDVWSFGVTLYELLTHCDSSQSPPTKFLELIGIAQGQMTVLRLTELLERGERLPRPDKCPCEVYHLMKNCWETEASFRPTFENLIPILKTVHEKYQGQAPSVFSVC
Nature of the assay: JAK kinase assay (HTRF, phosphorylation of TK substrate-biotin), TYK2. Conditions: HTRF assay, ATP at Km (13 μM); read-out: TYK2 kinase inhibitory activity (EC50 indicator). The gist of the method:
as §1

In general, pEC50 refers to −log10 of the EC50, conventionally taken in molar units.

pEC50: −log10 of the molar value. A value given as a limit tells only on which side of the number the result lay.

T1 sequence (P23458 850-1154): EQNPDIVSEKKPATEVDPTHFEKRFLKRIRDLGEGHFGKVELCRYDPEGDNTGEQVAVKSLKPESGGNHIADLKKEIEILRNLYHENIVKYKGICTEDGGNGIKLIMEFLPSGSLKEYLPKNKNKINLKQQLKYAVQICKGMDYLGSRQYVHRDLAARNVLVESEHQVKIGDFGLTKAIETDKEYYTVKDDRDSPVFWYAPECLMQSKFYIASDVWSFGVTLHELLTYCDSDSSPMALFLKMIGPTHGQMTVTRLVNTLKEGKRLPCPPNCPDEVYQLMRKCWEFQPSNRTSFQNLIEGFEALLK
T2 sequence (O60674 849-1124 limits assumed): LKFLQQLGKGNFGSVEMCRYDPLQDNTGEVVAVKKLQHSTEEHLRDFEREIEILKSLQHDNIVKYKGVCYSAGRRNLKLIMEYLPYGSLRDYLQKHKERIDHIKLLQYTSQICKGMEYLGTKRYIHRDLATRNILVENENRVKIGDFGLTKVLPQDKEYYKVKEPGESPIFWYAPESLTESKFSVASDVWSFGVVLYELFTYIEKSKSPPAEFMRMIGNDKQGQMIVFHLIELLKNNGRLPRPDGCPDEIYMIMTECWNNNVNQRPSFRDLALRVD
T3 sequence (P52333 822-1111 limits assumed): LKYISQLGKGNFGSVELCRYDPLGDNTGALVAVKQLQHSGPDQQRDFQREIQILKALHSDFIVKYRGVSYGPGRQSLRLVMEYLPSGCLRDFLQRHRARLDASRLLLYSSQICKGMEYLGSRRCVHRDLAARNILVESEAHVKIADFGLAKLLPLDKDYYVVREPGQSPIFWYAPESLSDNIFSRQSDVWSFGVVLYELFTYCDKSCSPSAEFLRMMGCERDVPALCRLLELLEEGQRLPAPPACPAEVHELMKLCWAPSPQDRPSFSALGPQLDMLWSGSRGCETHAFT

`O=C(c1ccc(-c2ccccc2)s1)N1CCN(c2ncnc3[nH]ccc23)CC12CC2` [Example 215, (5-Phenyl-thiophen-2-yl)-[7-(7H-pyrrolo[2,3-d]pyrimidin-4-yl)-4,7-diaza-spiro[2.5]oct-4-yl]-methanone]: the pEC50 is greater than 7.00 in assay [1], greater than 7.00 in assay [2], 6.30 to 7.00 in assay [3] and 6.30 to 7.00 in assay [4].

As to `COc1ncccc1C(=O)N1CCN(c2ncnc3[nH]ccc23)CC12CC2` [Example 216, (2-Methoxy-pyridin-3-yl)-[7-(7H-pyrrolo[2,3-d]pyrimidin-4-yl)-4,7-diaza-spiro[2.5]oct-4-yl]-methanone], the negative logarithm of the EC50 (pEC50) in assay [1] was 6.30 to 7.00; in assay [2] it was 6.30 to 7.00; in assay [3], less than 6.30; in assay [4], less than 6.30.

On to `N#Cc1ccc2[nH]c(C(=O)N3CCN(c4ncnc5[nH]ccc45)CC34CC4)cc2c1` [Example 217, 2-[7-(7H-Pyrrolo[2,3-d]pyrimidin-4-yl)-4,7-diaza-spiro[2.5]octane-4-carbonyl]-1H-indole-5-carbonitrile], for which the pEC50 in assay [1] was greater than 7.00; in assay [2], greater than 7.00; in assay [3], greater than 7.00; in assay [4], 6.30 to 7.00.

As to `O=C(c1ccc2c(c1)CCCC2)N1CCN(c2ncnc3[nH]ccc23)CC12CC2` [Example 218, [7-(7H-Pyrrolo[2,3-d]pyrimidin-4-yl)-4,7-diaza-spiro[2.5]oct-4-yl]-(5,6,7,8-tetrahydro-naphthalen-2-yl)-methanone], the negative logarithm of the EC50 (pEC50) in assay [1] was greater than 7.00; in assay [2], greater than 7.00; in assay [3], less than 6.30; in assay [4] it was less than 6.30.

Take `N#Cc1ccc(C(=O)N2CCN(c3ncnc4[nH]ccc34)CC23CC3)cc1F` [Example 219, 2-Fluoro-4-[7-(7H-pyrrolo[2,3-d]pyrimidin-4-yl)-4,7-diaza-spiro[2.5]octane-4-carbonyl]-benzonitrile]: the pEC50 in assay [1] was greater than 7.00; in assay [2], greater than 7.00; in assay [3] it was 6.30 to 7.00; in assay [4], 6.30 to 7.00.

In the case of `N#CCC(=O)N1CCN(c2ccnc3[nH]ccc23)CC12CC2` [Example 220, 3-Oxo-3-[7-(1H-pyrrolo[2,3-b]pyridin-4-yl)-4,7-diaza-spiro[2.5]oct-4-yl]-propionitrile], the pEC50 in assay [1] is 6.30 to 7.00; in assay [2], 6.30 to 7.00; in assay [3] it was 6.30 to 7.00; in assay [4] it was less than 6.30.

As to `O=C(c1ccccc1)N1CCN(c2ccnc3[nH]ccc23)CC12CC2` [Example 221, Phenyl-[7-(1H-pyrrolo[2,3-b]pyridin-4-yl)-4,7-diaza-spiro[2.5]oct-4-yl]-methanone], the pEC50 in assay [1] was greater than 7.00; in assay [2], greater than 7.00; in assay [3], 6.30 to 7.00; in assay [4], less than 6.30.

For `O=C(c1ccccn1)N1CCN(c2ccnc3[nH]ccc23)CC12CC2` [Example 222, Pyridin-2-yl-[7-(1H-pyrrolo[2,3-b]pyridin-4-yl)-4,7-diaza-spiro[2.5]oct-4-yl]-methanone], the pEC50 in assay [1] was 6.30 to 7.00; in assay [2], 6.30 to 7.00; in assay [3], less than 6.30; in assay [4], less than 6.30.

With `O=C(c1cccnc1)N1CCN(c2ccnc3[nH]ccc23)CC12CC2` [Example 223, Pyridin-3-yl-[7-(1H-pyrrolo[2,3-b]pyridin-4-yl)-4,7-diaza-spiro[2.5]oct-4-yl]-methanone], the negative-log EC50 (pEC50) is 6.30 to 7.00 in assay [1], 6.30 to 7.00 in assay [2], less than 6.30 in assay [3] and less than 6.30 in assay [4].

As to `O=C(c1ccncc1)N1CCN(c2ccnc3[nH]ccc23)CC12CC2` [Example 224, Pyridin-4-yl-[7-(1H-pyrrolo[2,3-b]pyridin-4-yl)-4,7-diaza-spiro[2.5]oct-4-yl]-methanone], the pEC50 is 6.30 to 7.00 in assay [1], 6.30 to 7.00 in assay [2], less than 6.30 in assay [3] and less than 6.30 in assay [4].

On to `O=C(c1cnccn1)N1CCN(c2ccnc3[nH]ccc23)CC12CC2` [Example 225, Pyrazin-2-yl-[7-(1H-pyrrolo[2,3-b]pyridin-4-yl)-4,7-diaza-spiro[2.5]oct-4-yl]-methanone], for which the pEC50 in assay [1] was 6.30 to 7.00; in assay [2], greater than 7.00; in assay [3] it was less than 6.30; in assay [4], less than 6.30.

Consider `N#Cc1ccc(C(=O)N2CCN(c3ccnc4[nH]ccc34)CC23CC3)cc1` [Example 226, 4-[7-(1H-Pyrrolo[2,3-b]pyridin-4-yl)-4,7-diaza-spiro[2.5]octane-4-carbonyl]-benzonitrile], for which the pEC50 in assay [1] is greater than 7.00; in assay [2], 6.30 to 7.00; in assay [3], less than 6.30; in assay [4], less than 6.30.

On to `N#Cc1cccc(C(=O)N2CCN(c3ccnc4[nH]ccc34)CC23CC3)c1` [Example 227, 3-[7-(1H-Pyrrolo[2,3-b]pyridin-4-yl)-4,7-diaza-spiro[2.5]octane-4-carbonyl]-benzonitrile], for which the pEC50 in assay [1] was greater than 7.00; in assay [2], greater than 7.00; in assay [3], 6.30 to 7.00; in assay [4], less than 6.30.

In the case of `Cc1ccsc1C(=O)N1CCN(c2ccnc3[nH]ccc23)CC12CC2` [Example 228, (3-Methyl-thiophen-2-yl)-[7-(1H-pyrrolo[2,3-b]pyridin-4-yl)-4,7-diaza-spiro[2.5]oct-4-yl]-methanone], the pEC50 in assay [1] was 6.30 to 7.00; in assay [2] it was greater than 7.00; in assay [3], less than 6.30; in assay [4], less than 6.30.

With `O=C(c1cccc(OC(F)(F)F)c1)N1CCN(c2ccnc3[nH]ccc23)CC12CC2` [Example 229, [7-(1H-Pyrrolo[2,3-b]pyridin-4-yl)-4,7-diaza-spiro[2.5]oct-4-yl]-(3-trifluoromethoxy-phenyl)-methanone], the pEC50 is 6.30 to 7.00 in assay [1], 6.30 to 7.00 in assay [2], less than 6.30 in assay [3] and less than 6.30 in assay [4].

Take `N#CCc1ccc(C(=O)N2CCN(c3ccnc4[nH]ccc34)CC23CC3)cc1` [Example 230, {4-[7-(1H-Pyrrolo[2,3-b]pyridin-4-yl)-4,7-diaza-spiro[2.5]octane-4-carbonyl]-phenyl}-acetonitrile]: the negative logarithm of the EC50 (pEC50) in assay [1] was 6.30 to 7.00; in assay [2] it was greater than 7.00; in assay [3] it was 6.30 to 7.00; in assay [4] it was less than 6.30.

Turning to `Cc1ccc(C(=O)N2CCN(c3ccnc4[nH]ccc34)CC23CC3)s1` [Example 231, (5-Methyl-thiophen-2-yl)-[7-(1H-pyrrolo[2,3-b]pyridin-4-yl)-4,7-diaza-spiro[2.5]oct-4-yl]-methanone], the pEC50 was greater than 7.00 in assay [1], greater than 7.00 in assay [2], 6.30 to 7.00 in assay [3] and 6.30 to 7.00 in assay [4].

For the compound `Cc1c(C(=O)N2CCN(c3ccnc4[nH]ccc34)CC23CC3)sc2ccccc12` [Example 232, (3-Methyl-benzo[b]thiophen-2-yl)-[7-(1H-pyrrolo[2,3-b]pyridin-4-yl)-4,7-diaza-spiro[2.5]oct-4-yl]-methanone], the negative-log EC50 (pEC50) in assay [1] was greater than 7.00; in assay [2] it was greater than 7.00; in assay [3], less than 6.30; in assay [4] it was 6.30 to 7.00.

Take `O=C(c1csc2ccccc12)N1CCN(c2ccnc3[nH]ccc23)CC12CC2` [Example 233, Benzo[b]thiophen-3-yl-[7-(1H-pyrrolo[2,3-b]pyridin-4-yl)-4,7-diaza-spiro[2.5]oct-4-yl]-methanone]: the pEC50 in assay [1] is 6.30 to 7.00; in assay [2], greater than 7.00; in assay [3], less than 6.30; in assay [4], less than 6.30.

With `Cc1ccc2sc(C(=O)N3CCN(c4ccnc5[nH]ccc45)CC34CC4)cc2c1` [Example 234, (5-Methyl-benzo[b]thiophen-2-yl)-[7-(1H-pyrrolo[2,3-b]pyridin-4-yl)-4,7-diaza-spiro[2.5]oct-4-yl]-methanone], the pEC50 was 6.30 to 7.00 in assay [1], 6.30 to 7.00 in assay [2], less than 6.30 in assay [3] and less than 6.30 in assay [4].

For `N#Cc1ccccc1C(=O)N1CCN(c2ccnc3[nH]ccc23)CC12CC2` [Example 235, 2-[7-(1H-Pyrrolo[2,3-b]pyridin-4-yl)-4,7-diaza-spiro[2.5]octane-4-carbonyl]-benzonitrile], the negative logarithm of the EC50 (pEC50) is 6.30 to 7.00 in assay [1], greater than 7.00 in assay [2], less than 6.30 in assay [3] and less than 6.30 in assay [4].

In the case of `N#Cc1cccc(CC(=O)N2CCN(c3ccnc4[nH]ccc34)CC23CC3)c1` [Example 236, 3-{2-Oxo-2-[7-(1H-pyrrolo[2,3-b]pyridin-4-yl)-4,7-diaza-spiro[2.5]oct-4-yl]-ethyl}-benzonitrile], the pEC50 in assay [1], in assay [2], in assay [3] and in assay [4] was less than 6.30 each time.
